Series [1] relates to FDB muscle fibers from R163C mice. Briefly: In vitro [Ca2+]i by Ca2+-selective microelectrode in FDB fibers from R163C mice. As to conditions: 0-5 µM. It counts as cell-based, mouse. As for the experimental part:
(§1) WT and mutant mice (R2509C, 8- to 20-week old; R163C, 12- to 16-week old, and G2435R, 12- to 16-week old) were euthanized and flexor digitorum brevis (FDB) muscles were dissected and incubated with 2 mg/mL collagenase (Worthington Biochemical Co., NJ, USA) in the HEPES-Krebs solution containing 2 mg/mL bovine serum albumin for 2–3 h at 37 °C. Following incubation, single cells were separated by gentle trituration in collagenase-free HEPES-Krebs solution. Isolated single FDB cells were seeded on a laminin-coated cover slip of the 35 mm glass-bottom dish or on 96 well plate coated with Cultrex basement membrane matrix (Trevigen, Minneapolis, USA).
Ca^2+ ion specific microelectrode recordings were performed as follows[38],[50]. For in vivo measurements, WT and heterozygous R163C mice (12- to 16-week old) were anesthetized by i.p. injection of 100 mg/kg ketamine and 5 mg/kg xylazine and placed on a 37 °C heating pad and their temperature was monitored. The vastus lateralis was exposed surgically after which its muscle fibers were impaled with double-barreled Ca^2+-selective microelectrode, and the potentials were recorded via a high-impedance amplifier (WPI Duo 773 electrometer; WPI, Sarasota, FL, USA). […] Muscle fibers were impaled with the microelectrodes as above and [Ca^2+]i was determined in the presence of varying (0–5 µM) concentrations of Cpd1.

The test system of series [2] is soleus muscles from WT mice. Briefly: Muscle force in vitro, soleus from WT mice (heat contracture, twitch, tetanus). The class given is cell-based, mouse. Details: stress (stress-frequency relationship): unit not given beside the values. As for the experimental part: Muscle contraction measurement was assessed using intact soleus muscle as follows. WT and R2509C mice (8- to 20-week old) were anesthetized with an i.p. injection of sodium pentobarbital (70 mg/kg body weight) and the soleus muscles were dissected. The isolated muscles were mounted between a force transducer (UL-100; Minebea Co., Tokyo, Japan) and a fixed hook in a chamber containing Krebs solution (140 mmol/L NaCl, 5 mmol/L KCl, 2 mmol/L CaCl2, 1 mmol/L MgCl2, 1 mmol/L NaH2PO4, 25 mmol/L NaHCO3, and 11 mmol/L glucose) bubbled with 95% O2 and 5% CO2 at 25 °C. The muscle force was recorded and analyzed by LabChart v6 (AdInstruments, Dunedin, New Zealand). The muscles were stretched to determine the length which produced maximum twitch contraction in response to field stimulation for 1 msec at supramaximal voltage. For caffeine contracture studies, muscles were exposed for 2 min to Krebs solution containing 10, 15, or 20 mM caffeine. For heat-induced contracture studies, muscles were exposed to Krebs solution warmed at 27, 35, 40, and 42 °C until basal force peaked. For twitch and tetanic contraction measurements, muscles were stimulated at 1 min intervals with 20 trains of 1, 2, 5, 10, 20, 50, 100, and 200 Hz pulses. For Cpd1 treatment, muscles were incubated with Krebs solution containing 3 µM Cpd1 15 min prior to measurements. Absolute contractile force was normalized to the maximum diameter of the muscle.

The next series concerns WT mice. The experiment in a line: Muscle force in vivo, grip force test (4-grips test), WT mice. On the set-up: species or system mouse. The note with it: for grip force (sheet Fig S6b): single mice; for grip force normalized by body weight: 8-times injection of 1 mg/kg at 10 min intervals, 1 mg/kg.
Series [3] concerns FDB muscle cells from R2509C mice. The experiment in a line: Mn2+ quench of fura-2 fluorescence in isolated FDB cells from R2509C mice. The class given is cell-based, mouse. As to conditions: 0.1 μM. As for the experimental part:
as §1
Isolated single FDB cells were incubated with 4 µM Cal520-AM (AAT Bioquest, CA, USA) or fura-2-AM (Thermo Fisher Scientific) dye in the HEPES-Krebs solution (140 mM NaCl, 5 mM KCl, 2 mM CaCl2, 1 mM MgCl2, 11 mM glucose, 5 mM HEPES, pH 7.4) for 30 min at 37 °C. The cells were then washed three times with the HEPES-Krebs solution to remove excess dye, and after 30 min of de-esterification, fluorescence images were obtained with a 20X (NA = 0.75) objective lens of an inverted microscope (Nikon TE2000-E Japan) equipped with the sCMOS camera (Zyla, Andor, Belfast, Northern Ireland) using Metamorph v7 (Molecular Devices). Cal520 was excited at 480 ± 15 nm, and fluorescence was measured at wavelengths of 525 ± 25 nm. […]

The results in this text go back to article PMC8277899, “A novel RyR1-selective inhibitor prevents and rescues sudden death in mouse models of malignant hyperthermia and heat stroke” (Nature Communications, 2021).

SMILES strings stand for the structures. Where “and” joins values, the source holds several entries; their conditions need not be identical. Equal values may be shown once.

With `CCCCCCCCn1cc(C(=O)O)c(=O)c2cc3c(cc21)OCO3` [Cpd1, 6,7-(methylenedioxy)-1-octyl-4-quinolone-3-carboxylic acid], the “effect on [Ca2+]i in quiescent fibers” value in series [1] was “reduced [Ca^2+]i in R163C fibers in a dose-dependent manner to the level of WT fibers”. In addition, the twitch tension in series [2] (3 μM Cpd1) is 0.08926 and 0.06376 and 0.0706 and 0.1008 and 0.09044. In addition, the “stress (stress-frequency relationship)” value in series [2] (3 μM Cpd1, 1 Hz) is 0.07934 and 0.05313 and 0.0706 and 0.09238 and 0.1028; in series [2] (3 μM Cpd1, 2 Hz), 0.07934 and 0.05313 and 0.0706 and 0.09238 and 0.1028; in series [2] (3 μM Cpd1, 10 Hz), 0.08926 and 0.05313 and 0.0706 and 0.09238 and 0.09866; in series [2] (3 μM Cpd1, 50 Hz), 0.7934 and 0.7651 and 0.5531 and 0.7307 and 0.4851. Further, the “grip force (sheet Fig S6b)” value in the series on WT mice (10 min after Cpd1) is 10.7 and 8.11 and 9.35 and 11.39; with WT mice (60 min after Cpd1), 11.25 and 11.53 and 12.05 and 13.94; with WT mice (Pre (before administration), Cpd1 group), 12.3 and 12.63 and 13.75 and 13.44. Moreover, the “reduction of muscle strength” value with WT mice (WT mice, 10 min after 10 mg/kg) was determined as 15%. In addition, the “recovery of muscle strength deficit” value in the series on WT mice (WT mice, 60 min after 10 mg/kg) is listed as “almost completely recovered”. Further, the “grip force normalized by body weight” value in the series on WT mice (female WT, 10 min) was 6.55 g/g BW and 8.77 g/g BW and 8.32 g/g BW; in the series on WT mice (female WT, 30 min), 6.59 g/g BW and 8.18 g/g BW and 9 g/g BW; with WT mice (female WT, 60 min) it was 8.64 g/g BW and 8.82 g/g BW and 9.45 g/g BW; in the series on WT mice (female WT, 120 min), 10.05 g/g BW and 9.64 g/g BW and 12.23 g/g BW; in the series on WT mice (female WT, Pre), 9.86 g/g BW and 10.18 g/g BW and 11.36 g/g BW; in the series on WT mice (male WT, 10 min) it was 6.56 g/g BW and 4.67 g/g BW and 5.04 g/g BW. The “grip force normalized by body weight” value with WT mice (male WT, 30 min) was 7.19 g/g BW and 7.63 g/g BW and 7.37 g/g BW; in the series with WT mice (male WT, 60 min) it was 8.81 g/g BW and 9.89 g/g BW and 10.81 g/g BW; in the series with WT mice (male WT, 120 min), 9.48 g/g BW and 8.74 g/g BW and 9.44 g/g BW; with WT mice (male WT, Pre), 9.33 g/g BW and 9.22 g/g BW and 8.63 g/g BW. Further, in series [3], the “effect on rate of Mn2+ quench” value is given as “no effect”.
